Legend:
[1] = target: T1, recombinant human IL17a (binding to its receptor IL17R) (Homo sapiens, UniProt Q16552); experiment: IL-17 competition ELISA I (IL17a coated, IL17R/Fc binding)
T1 construct: purchased R&D Systems 317-ILB (IL17a); 177-IR (IL17R/Fc)
T1 sequence (Q16552 20-155 limits assumed): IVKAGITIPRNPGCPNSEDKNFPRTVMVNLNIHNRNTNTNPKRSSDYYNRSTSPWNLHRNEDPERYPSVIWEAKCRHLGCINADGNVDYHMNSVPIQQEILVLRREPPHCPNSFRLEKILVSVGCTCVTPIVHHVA
Experimental: ELISA I: The ability of the compounds to block binding of IL17a to its receptor, IL17R, was analyzed in a competition ELISA format. High binding 96-well plates (Costar #9018) were coated with 20 nM of recombinant human IL17a (R&D Systems #317-ILB) in PBS (0.64 μg/mL), 100 μL/well, for 30 min at 37′C followed by 5 min at 4′C. Plates were then washed in PBST (PBS/0.05% Tween-20) on a plate washer, (Biotech EL-450) blocked with protein-free blocking buffer (Thermo Scientific #37573) in 250 μL/well for 30 min on shaker at room temperature, and then washed again. Compound dilutions prepared in PBST were added into the wells in duplicates followed by the addition of IL17R/Fc (R&D Systems #177-IR) at a final concentration of 12 nM. Plates were then incubated for 30 min at room temperature on the shaker. Wells with no compound served as a positive “no competitor” control, while wells with no IL17R/Fc and no compound served as a blank negative control. After an additional PBST wash, 50 ng/mL HRP-conjugated goat anti-human Fc IgG (KPL #04-10-20) was added to the plate for 30 min at room temperature, followed by PBST wash and addition of SureBlue™ TMB (KPL #52-00-03). After the sufficient color development, the reaction was fixed by the addition of 100 μL/well 0.5 N HCl and absorbance was measured at 450 nm on Biotek plate reader.
Data were processed using BioAssay Enterprise v10.1.4 (CambridgeSoft) software. Linear OD λ450 were plotted against log concentration (x) and fitted to a 4-parameter logistic equation. IC50 was calculated using positive ‘no competitor’ control data as an upper limit and blank control as a lower limit in each assay.

[2] = target: T2, biotinylated human IL-17 (binding to IL17R/Fc) (Homo sapiens, UniProt Q16552); experiment: IL-17 competition ELISA II (captured IL17R/Fc, biotinylated IL-17)
T2 construct: purchased R&D Systems 317-ILB (IL-17, biotinylated); 177-IR (IL17R/Fc)
T2 sequence (Q16552 20-155 limits assumed): T1 sequence (Q16552 20-155 limits assumed)
In short: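 Anti-human IgG-coated plates captured IL17R/Fc (10 nM), then compound (5-fold dilutions from 1 μM) and biotinylated human IL-17 (20 nM stock) were added for 30 min at room temperature in PBST. Bound IL-17 detected by streptavidin-HRP/TMB at 450 nm. IC50 from 4-parameter logistic fit between no-competitor and blank controls.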

| SMILES | IC50 [1] | IC50 [2] |
| --- | --- | --- |
| O=C1CNC(=O)[C@@H](Cc2ccc(NC(=O)[C@H](Cc3ccccc3Cl)NC(=O)c3ccc(CO)cc3)cc2)NC(=O)CC2(CCCC2)CC(=O)NCCCCCN1 [Compound 219] | 100 to 1000 nM | – |
| COCC(=O)N[C@@H](Cc1ccccc1Cl)C(=O)Nc1ccc(C[C@H]2NC(=O)CC3(CCCC3)CC(=O)NCCCCCNC(=O)CNC2=O)cc1 [Compound 234] | 100 to 1000 nM | – |
| O=C1CNC(=O)[C@@H](Cc2ccc(NC(=O)[C@H](Cc3ccccc3)NC(=O)Cc3ccccc3)cc2)NC(=O)CC2(CCCC2)CC(=O)NCCCCCN1 [Compound 237] | < 100 nM | – |
| CN(C(=O)Cc1ccccc1)[C@@H](Cc1ccccc1)C(=O)Nc1ccc(C[C@H]2NC(=O)CC3(CCCC3)CC(=O)NCCCCCNC(=O)CNC2=O)cc1 [Compound 238] | 1000 to 10000 nM | – |
| O=C1CNC(=O)C(Cc2ccc(NC(=O)C(Cc3cccc(Cl)c3)NC(=O)Cc3ccccc3)cc2)NC(=O)CC2(CCCC2)CC(=O)NCCCCCN1 (stereo not drawn) [Compound 239] | < 100 nM | – |
| O=C1CNC(=O)[C@@H](Cc2ccc(NC(=O)[C@H](Cc3ccc(Cl)cc3)NC(=O)Cc3ccccc3)cc2)NC(=O)CC2(CCCC2)CC(=O)NCCCCCN1 [Compound 240] | < 100 nM | – |
| CC1(C)CC(=O)NCCCCCNC(=O)CNC(=O)[C@@H](Cc2ccc(NC(=O)[C@H](CC3CC3)NC(=O)Cc3ccccc3)cc2)NC(=O)C1 [Compound 245] | 1000 to 10000 nM | – |
| COC(=O)[C@@H]1CCCCNC(=O)CNC(=O)[C@@H](Cc2ccc(NC(=O)[C@H](Cc3ccccc3Cl)NC(C)=O)cc2)NC(=O)CC2(CCCC2)CC(=O)N1 [Compound 248] | < 100 nM | – |
| COC(=O)[C@@H]1CCCCNC(=O)CNC(=O)[C@@H](Cc2ccc(NC(=O)[C@H](Cc3ccccc3Cl)NC(=O)Cc3ccc(O)cc3)cc2)NC(=O)CC2(CCCC2)CC(=O)N1 [Compound 249] | < 100 nM | – |
| CC(=O)N[C@H](C(=O)Nc1ccc(C[C@H]2NC(=O)CC(C)(C)CC(=O)NCCCCCNC(=O)CNC2=O)cc1)C1CCCCC1 [Compound 252] | 1000 to 10000 nM | – |
| CC1(C)CC(=O)NCCCCCNC(=O)CNC(=O)[C@@H](Cc2ccc(NC(=O)[C@H](Cc3cccs3)NC(=O)Cc3ccccc3)cc2)NC(=O)C1 [Compound 255] | 1000 to 10000 nM | – |
| O=C1CC2(CCCC2)CC(=O)N[C@H](Cc2ccc(NC(=O)[C@H](Cc3ccccc3Cl)NC(=O)Cc3ccc(O)cc3)cc2)C(=O)N[C@H](Cc2ccccc2)C(=O)NCCCCCN1 [Compound 262] | < 100 nM | – |
| O=C1CNC(=O)[C@@H](Cc2ccc(NC(=O)[C@H](Cc3ccccc3Cl)NS(=O)(=O)c3ccccc3)cc2)NC(=O)CC2(CCCC2)CC(=O)NCCCCCN1 [Compound 271] | 1000 to 10000 nM | – |
| O=C1CNC(=O)[C@@H](Cc2ccc(NC(=O)[C@H](Cc3ccccc3Cl)NC(=O)c3ccc(O)c(F)c3)cc2)NC(=O)CC2(CCCC2)CC(=O)NCCCCCN1 [Compound 277] | 100 to 1000 nM | – |
| O=C1CNC(=O)[C@@H](Cc2ccc(NC(=O)[C@H](Cc3ccccc3Cl)NC(=O)C(F)(F)c3ccccc3)cc2)NC(=O)CC2(CCCC2)CC(=O)OCCCCCN1 [Compound 674] | – | < 100 nM |
| CC(=O)N[C@@H](Cc1ccccc1Cl)C(=O)Nc1ccc(C[C@H]2NC(=O)CC3(CCCC3)CC(=O)OCCCCCNC(=O)CNC2=O)cc1 [Compound 676] | – | < 100 nM |
| CCC(F)(F)C(=O)N[C@H](C(=O)Nc1ccc(C[C@H]2NC(=O)CC3(CCCC3)CC(=O)OCCCCCNC(=O)CNC2=O)cc1)C1CCCCC1 [Compound 677] | – | 100 to 1000 nM |
| CN1CCCCCOC(=O)CC2(CCCC2)CC(=O)N[C@H](Cc2ccc(NC(=O)[C@@H](NC(=O)C(F)(F)c3ccccc3)C3CCCCC3)cc2)C(=O)NCC1=O [Compound 679] | – | < 100 nM |

Next, values leading:

| IC50 [1] | IC50 [2] | SMILES |
| --- | --- | --- |
| < 100 nM | – | O=C1CNC(=O)[C@@H](Cc2ccc(NC(=O)[C@H](Cc3ccccc3Cl)NC(=O)Cc3cccc(O)c3)cc2)NC(=O)CC2(CCCC2)CC(=O)NCCCCCN1 [Compound 217] |
| 100 to 1000 nM | – | O=C1CNC(=O)[C@@H](Cc2ccc(NC(=O)[C@H](Cc3ccccc3Cl)NC(=O)C3CCOCC3)cc2)NC(=O)CC2(CCCC2)CC(=O)NCCCCCN1 [Compound 220] |
| < 100 nM | – | O=C1CNC(=O)[C@@H](Cc2ccc(NC(=O)[C@H](Cc3ccsc3)NC(=O)Cc3ccccc3)cc2)NC(=O)CC2(CCCC2)CC(=O)NCCCCCN1 [Compound 229] |
| 100 to 1000 nM | – | O=C1CNC(=O)[C@@H](Cc2ccc(NC(=O)[C@H](Cc3ccccc3Cl)NC(=O)c3ncco3)cc2)NC(=O)CC2(CCCC2)CC(=O)NCCCCCN1 [Compound 235] |
| 100 to 1000 nM | – | O=C1CNC(=O)[C@@H](Cc2ccc(NC(=O)[C@H](Cc3ccc(Cl)c(Cl)c3)NC(=O)Cc3ccccc3)cc2)NC(=O)CC2(CCCC2)CC(=O)NCCCCCN1 [Compound 241] |
| 100 to 1000 nM | – | CC1(C)CC(=O)NCCCCCNC(=O)CNC(=O)[C@@H](Cc2ccc(NC(=O)[C@H](CC3CCC3)NC(=O)Cc3ccccc3)cc2)NC(=O)C1 [Compound 247] |
| < 100 nM | – | COC(=O)[C@@H]1CCCCNC(=O)CNC(=O)[C@@H](Cc2ccc(NC(=O)[C@H](Cc3ccccc3Cl)NC(=O)c3cccnc3)cc2)NC(=O)CC2(CCCC2)CC(=O)N1 [Compound 250] |
| > 10000 nM | – | CC(=O)N[C@@H](Cc1cccs1)C(=O)Nc1ccc(C[C@H]2NC(=O)CC(C)(C)CC(=O)NCCCCCNC(=O)CNC2=O)cc1 [Compound 256] |
| 100 to 1000 nM | – | CC1(C)CC(=O)NCCCCCNC(=O)CNC(=O)[C@@H](Cc2ccc(NC(=O)[C@H](Cc3cccs3)NC(=O)Cc3ccc(O)cc3)cc2)NC(=O)C1 [Compound 257] |
| 1000 to 10000 nM | – | CC1(C)CC(=O)NCCCCCNC(=O)CNC(=O)[C@@H](Cc2ccc(NC(=O)[C@H](Cc3cccs3)NC(=O)c3cccnc3)cc2)NC(=O)C1 [Compound 258] |
| < 100 nM | – | O=C1CNC(=O)[C@@H](Cc2ccc(NC(=O)[C@H](Cc3ccccc3Cl)NC(=O)Cc3ccc(O)cc3)cc2)NC(=O)CC2(CCCC2)CC(=O)N[C@H](C(=O)O)CCCCN1 [Compound 265] |
| 100 to 1000 nM | – | O=C1CNC(=O)[C@@H](Cc2ccc(NC(=O)[C@H](Cc3ccccc3Cl)NS(=O)(=O)Cc3ccccc3)cc2)NC(=O)CC2(CCCC2)CC(=O)NCCCCCN1 [Compound 272] |
| 100 to 1000 nM | – | O=C1CNC(=O)[C@@H](Cc2ccc(NC(=O)[C@H](Cc3ccccc3Cl)NC(=O)CC3CCOCC3)cc2)NC(=O)CC2(CCCC2)CC(=O)NCCCCCN1 [Compound 275] |
| 1000 to 10000 nM | – | O=C1CNC(=O)[C@@H](Cc2ccc(NC(=O)[C@H](Cc3ccccc3Cl)NC(=O)c3ccc(F)cc3O)cc2)NC(=O)CC2(CCCC2)CC(=O)NCCCCCN1 [Compound 278] |
| < 100 nM | – | O=C1CNC(=O)[C@@H](Cc2ccc(NC(=O)[C@H](Cc3ccccc3Cl)NC(=O)Cc3ccc(O)cc3)cc2)NC(=O)CC2(CCCC2)CC(=O)NCCCCCN1 [Compound 279] |
| < 100 nM | – | CN1CCCCCNC(=O)CC2(CCCC2)CC(=O)N[C@H](Cc2ccc(NC(=O)[C@H](Cc3ccccc3Cl)NC(=O)Cc3ccccc3)cc2)C(=O)NCC1=O [Compound 281] |
| < 100 nM | – | COC(=O)[C@@H]1CCCCNC(=O)CNC(=O)[C@@H](Cc2ccc(NC(=O)[C@@H](NC(=O)Cc3ccccc3)C3CCCCC3)cc2)NC(=O)CC2(CCCC2)CC(=O)N1 [Compound 282] |
| 100 to 1000 nM | – | C=CCOC(=O)N1CCNC(=O)CNC(=O)[C@@H](Cc2ccc(NC(=O)[C@H](Cc3ccccc3Cl)NC(=O)Cc3ccccc3)cc2)NC(=O)CC2(CCCC2)CC(=O)NCC1 [Compound 284] |
| < 100 nM | – | COC(=O)[C@@H]1CCCCNC(=O)CC2(CCCC2)CC(=O)N[C@H](Cc2ccc(NC(=O)[C@H](Cc3ccccc3Cl)NC(=O)Cc3ccccc3)cc2)C(=O)NCC(=O)N1 [Compound 285] |
| 100 to 1000 nM | – | O=C1CCCCCNC(=O)CNC(=O)[C@@H](Cc2ccc(NC(=O)[C@H](Cc3ccccc3Cl)NC(=O)Cc3ccccc3)cc2)NC(=O)CC2(CCCCC2)CN1 [Compound 286] |
| – | < 100 nM | O=C1CNC(=O)[C@@H](Cc2ccc(NC(=O)[C@H](Cc3ccccc3Cl)NC(=O)C(F)F)cc2)NC(=O)CC2(CCCC2)CC(=O)OCCCCCN1 [Compound 675] |
| – | < 100 nM | CN1CCCCCOC(=O)CC2(CCCC2)CC(=O)N[C@H](Cc2ccc(NC(=O)[C@H](Cc3ccccc3Cl)NC(=O)C(F)(F)c3ccccc3)cc2)C(=O)NCC1=O [Compound 678] |
| – | 100 to 1000 nM | CCC(F)(F)C(=O)NC(C(=O)Nc1ccc(CC2NC(=O)CC3(CCCC3)CC(=O)OCCCCCN(C)C(=O)CNC2=O)cc1)C1CCCCC1 (stereo not drawn) [Compound 680] |
| – | < 100 nM | CC(=O)NC(C(=O)Nc1ccc(CC2NC(=O)CC3(CCCC3)CC(=O)OCCCCCN(C)C(=O)CNC2=O)cc1)C1CCCCC1 (stereo not drawn) [Compound 681] |
